In patent publication US5736523A, “Antineoplastic heteronapthoquinones” (Biochem Pharma Inc., priority 1995, dated 1998):
Structures can show the parent of a compound that is named as a salt.

What follows are compounds tested on SKVLB (Ovarian; multidrug resistant) (assay: In vitro cytotoxicity, microculture tetrazolium (MTT) assay, SKVLB). Settings: Homo sapiens.
Format: cell-based, human
Experimental: In Vitro Cytotoxicity--Microculture Tetrazolium Assay
The microculture tetrazolium assay was used to test in vitro cytotoxicity. This assay is described in Plumb, J. A. et al., 1989 Cancer Research 49, 4435-4440, which is herein incorporated by reference. The cytotoxicity of compounds towards tumor cells is measured in vitro using the assay. This assay method is based upon the ability of live, but not dead cells to reduce the yellow water soluble dye 3-(4;5-dimethylthiazol-2-yl)-2,5-diphenyltetrazolium bromide (MTT) to its water insoluble purple formazan product.
Human Tumor Cell lines, used were:
SKVLB (Ovarian; multidrug resistant)--Dr. V. Ling, Ontario
The cells were maintained in exponential growth in culture in minimal essential media (MEM) supplemented with non-essential amino acids, and containing 15% (v/v) fetal bovine serum, 5 mM L-glutamine, 1 mM sodium pyruvate, and 0.1 U/ml insulin. All cell lines were grown at 37° C. in an atmosphere of 5% CO2 in air.
Test compounds: 20 mM in DMSO and diluted to a final concentration of 200 μM in culture medium before use.
The following is the generic description of the assay method. It should be noted that although the conditions described work well with the cells listed above, the initial plating density and the MTT concentration used should be verified for each new cell line used to test compounds.
For each assay, doxorubicin is included as an inter-assay standard. This allows us to monitor the behaviour of the assay in general, and in particular, to check that the SKVLB line has maintained its resistant phenotype.
The plate layout is done in the following manner: The assays are carried out in 96-well (8 well×12 well) microtiter plates. Serial dilutions of the compound are tested along the length of the plate. A 1:3 serial dilution of compound in culture medium covers a concentration range from 100 μM to 1.7 nM. Each concentration of compound is tested in quadruplet, allowing two compounds to be tested per plate. Wells containing no cells (blank) and cells with no test compound (control) are included on each plate.
Cells are plated out in 100 μl of culture medium in the microtiter plates at a density of around 1,500-4,000 cells per well. The plates are incubated overnight to allow the cells to become adherent after which the test compound is added (100 μl of appropriate dilution per well). The cells are incubated with test compound at 37° C. for 48 h after which the compound is replaced with fresh medium. After a further 48 h incubation at 37° C., 50 μl of MTT solution (2 mg/ml) is added to each well. The plates are incubated in the dark for 4 h at 37° C. after which the medium is removed. The MTT formazan product is extracted from the cells by the addition of 200 μl DMSO followed by 50 μl of Sorensen's buffer. The plates are shaken briefly and the absorbance at 570 nm is read using a Molecular Devices UV max plate reader. Curves are fit to the MTT assay data using a four parameter logistic equation, and the data are normalized to fit a 0% to 100% survival scale.

Row | SMILES | IC50
1 | COC(=O)C1=CC2=C(CO1)C(=O)c1ccccc1C2=O [BCH2830, 3-methoxy carbonyl-5,10-dioxo-5,10-dihydro-1H-naphtho-[2,3-c]-pyran] | 10.8 µM

Same assay, conditions: Homo sapiens, SKVLB, multidrug resistant; read-out: IC50

Row | SMILES | IC50
2 | CO[C@H]1O[C@H](C(=O)Nc2ccccc2)CC2=C1C(=O)c1ccccc1C2=O (relative stereo) [BCH2041, (1,3-trans)-1-methoxy-3-N-anilinylcarbonyl-5,10-dioxo-3,4,5,10-tetrahydro-1H-naphtho-[2,3-c]-pyran] | 10 µM

Same assay, conditions: ratio SKVLB / SKOV3

Row | SMILES | VLB/OV3
3 | COC(=O)C1=CC2=C(CO1)C(=O)c1ccccc1C2=O [BCH2830, 3-methoxy carbonyl-5,10-dioxo-5,10-dihydro-1H-naphtho-[2,3-c]-pyran] | 1.52
4 | COCC1(COC)CC2=C(C(=O)c3ccccc3C2=O)[C@H](O[C@H]2C[C@H](NC(=O)C(F)(F)F)[C@H](O)[C@H](C)O2)O1 [BCH1697] | 3.57
5 | COC(=O)[C@]1(C)CC2=C(C(=O)c3ccccc3C2=O)[C@@H](O[C@H]2C[C@H](NC(=O)C(F)(F)F)[C@H](O)[C@H](C)O2)O1 [BCH2077, (1'S,1R,3S)-1-(3'-trifluoroacetamido-2',3',6'-trideoxy-L-lyxohexopyranose)-3-methoxycarbonyl-3-methyl-3,4,5,10-tetrahydro-5,10-dioxo-1H-naphtho-[2,3-c] pyran] | 11
6 | CC(=O)O[C@H]1[C@@H](I)[C@H](O[C@H]2O[C@H](C(C)=O)CC3=C2C(=O)c2ccccc2C3=O)O[C@@H](C)[C@H]1OC(C)=O [BCH1666, (1'S,1R,3S)-methyl-(1-[2',6'-dideoxy-3'-4'-diacetoxy-2'-iodo-L-lyxohexopyranose]-5,10-dioxo-3,4,5,10-tetrahydronaphtho [2,3-c]-pyran-3-yl) ketone] | 0.75
7 | CC(=O)[C@@H]1CC2=C(C(=O)c3ccccc3C2=O)[C@@H](O[C@H]2C[C@H](NC(=O)C(F)(F)F)[C@H](O)[C@H](C)O2)S1 [BCH2037, (1'S,1S,3S)-1-(3'-trifluoroacetamido-2',3',6'-trideoxy-L-lyxohexopyranose)-5,10-dioxo-3,4,5,10-tetrahydro-1H-naphtho-[2,3-c]-thiopyran] | 0.93-6.41
8 | C[C@@H]1O[C@@H](O[C@H]2O[C@H](COc3ccccc3)CC3=C2C(=O)c2ccccc2C3=O)C[C@H](NC(=O)C(F)(F)F)[C@@H]1O [BCH2032, (1'S,1R,3S)-5,10-dioxo-3-phenyloxymethyl-1-(2',3',6'-trideoxy-3'-trifluoroacetamido-L-lyxohexopyranose)-3,4,5,10-tetrahydro-1H-naphtho-[2,3-c] pyran] | 2-2.93
9 | CC(=O)[C@H]1CC2=C(C(=O)c3ccccc3C2=O)[C@H](O[C@@H]2O[C@@H](C)[C@@H](O)[C@@H](NC(=O)C(F)(F)F)C2I)O1 (stereo partly drawn) [BCH2022, (1'S,1S,3R)-methyl-(1-[2',3',6'-trideoxy-2'-iodo-3'-trifluoroacetamido-4'-hydroxy-L-lyxohexopyranose]-5,10-dioxo-3,4,5,10-tetrahydronaphtho-[2,3-c]-pyran-3-yl) ketone] | 4.23
10 | COC(=O)C1(C(=O)OC)CC2=C(CO1)C(=O)c1ccccc1C2=O [BCH1665, 3,3-bis-(methoxycarbonyl)-5,10-dioxo-3,4,5,10-tetrahydro-1H-naphtho-[2,3-c]-pyran] | 1.14
11 | CO[C@@H]1O[C@H](C(=O)Nc2ccccc2)CC2=C1C(=O)c1ccccc1C2=O (relative stereo) [BCH2042, (1,3-cis)-1-methoxy-3-N-anilinylcarbonyl-5,10-dioxo-3,4,5,10-tetrahydro-1H-naphtho-[2,3-c]-pyran] | 3.51
12 | CC[C@H]1CO[C@H](O[C@H]2C[C@H](NC(=O)C(F)(F)F)[C@H](O)[C@H](C)O2)C2=C1C(=O)c1ccccc1C2=O [BCH2091, (1'S,1R,4R)-5,10-dioxo-4-ethyl-1-(2',3',6'-trideoxy-3'-trifluoroacetamido-L-lyxohexopyranose)-3,4,5,10-tetrahydro-1H-naphtho-[2,3-c] pyran] | 3
13 | CO[C@H]1O[C@H](C(=O)Nc2ccccc2)CC2=C1C(=O)c1ccccc1C2=O (relative stereo) [BCH2041, (1,3-trans)-1-methoxy-3-N-anilinylcarbonyl-5,10-dioxo-3,4,5,10-tetrahydro-1H-naphtho-[2,3-c]-pyran] | 5
14 | CO[C@H]1C[C@H](O[C@H]2O[C@H](C(C)=O)CC3=C2C(=O)c2ccccc2C3=O)O[C@@H](C)[C@H]1OS(C)(=O)=O [BCH2070, (1'-S,1-R,3-S)-methyl-(1-[2',3',4',6' tetradeoxy-3'-methoxy-4'-O-methanesulfonyl-L-lyxohexopyranose)-5,10-dioxo-3,4,5,10 tetrahydronaphtho-[2,3-c]pyran-3-yl) ketone] | 14.34-15
15 | COC(=O)[C@]1(C)CC2=C(C(=O)c3ccccc3C2=O)[C@H](O[C@H]2C[C@H](NC(=O)C(F)(F)F)[C@H](O)[C@H](C)O2)O1 [BCH2081, (1'S,1S,3S)-1-(3'-trifluoroacetamido-2',3',6'-trideoxylyxohexopyranose)-3-methoxycarbonyl-3-methyl-5,10-dioxo-4,5,10-trihydro-1H-naphtho-[2,3-c]-pyran] | 15
16 | CC(=O)[C@@H]1CC2=C(C(=O)c3ccc(O)cc3C2=O)[C@@H](O[C@H]2C[C@H](NC(=O)C(F)(F)F)[C@H](O)[C@H](C)O2)O1 [BCH1181, (1'S,1R,3S)-Methyl (5,10-dioxo-1-(2',3',6'-trideoxy-3'-trifluoroacetamido-L-lyxohexopyranose)-7-hydroxy-3,4,5,10-tetrahydro [2,3-C]pyran-3-yl) ketone] | 3.75
17 | CC(C)[C@@H]1CC2=C(C(=O)c3ccccc3C2=O)[C@@H](O[C@H]2C[C@H](NC(=O)C(F)(F)F)[C@H](O)[C@H](C)O2)O1 [BCH2053, (1'S,1R,3S)-5,10-dioxo-3-isopropyl-1-(2',3',6'-trideoxy-3'-trifluoroacetamido-L-lyxohexopyranose)-3,4,5,10-tetrahydro-1H-naphtho-[2,3-c]-pyran] | 4.48
18 | CC(=O)O[C@@H]1[C@H](C)O[C@@H](O[C@H]2O[C@H](C(C)=O)CC3=C2C(=O)c2ccccc2C3=O)C(Br)[C@@H]1OC(C)=O (stereo partly drawn) [BCH2100, (1'S,1R,3S)-methyl-(1-[2',6'-dideoxy-3',4'-diacetoxy-2'-bromo-L-lyxohexopyranose]-5,10-dioxo-3,4,5,10-tetrahydronaphtho-[2,3-c]-pyran-3-yl) ketone] | 3.04
19 | CC(=O)C1CC2=C(C(=O)c3ccccc3C2=O)C(O[C@H]2C[C@H](NC(=O)C(F)(F)F)[C@H](OS(C)(=O)=O)[C@H](C)O2)O1 (mixture of isomers) [BCH2095, (1'-S,1-S,3-R) and (1'-S,1-R,3-S)-methyl-(1-[2',3',4',6' tetradeoxy-3'-trifluoroacetamido-4'-O-methane-sulfonyl-L-lyxohexopyranose)-5,10-dioxo-3,4,5,10 tetrahydronaphtho-[2,3-c]pyran-3-yl) ketone] | 8.16
20 | COC(=O)[C@@]1(C)CC2=C(C(=O)c3ccccc3C2=O)[C@H](O[C@H]2C[C@H](NC(=O)C(F)(F)F)[C@H](O)[C@H](C)O2)O1 [BCH2076, (1'S,1S,3R)-1-(3'-trifluoroacetamido-2',3',6'-trideoxy-lyxo-L-hexopyranose)-3-methoxycarbonyl-3-methyl-3,4,5,10-tetrahydro-5,10-dioxonaphtho-[2,3-c] pyran] | 9
21 | CC(=O)[C@H]1CC2=C(C(=O)c3ccccc3C2=O)[C@H](O[C@H]2C[C@H](NC(=O)C(F)(F)F)[C@H](Br)[C@H](C)O2)O1 [BCH2047, (1S,3R,1'S)-Methyl-(1-[2',3',4',6'-tetradeoxy-3'-trifluoroacetamido-4'-bromo-L-lyxohexopyranose]-5,10-dioxo-3,4,5,10-tetrahydronaphthaleno-[2,3-c]pyran-3-yl) ketone] | 31
22 | COC(=O)[C@H](CC(C)C)NC(=O)[C@@H](N)CO[C@H]1O[C@H](C(C)=O)CC2=C1C(=O)c1ccccc1C2=O [BCH2000, (1S,2'S,3S,5'S)-Methyl-(1-O-[Serine-Leucine-Me ester]-5,10-dioxo-3,4,5,10-tetrahydro-1-H-naphtho [2,3-c]pyran-3-yl) ketone hydrochloride] | 69.89
23 | CC(C)C(=O)[C@@H]1CC2=C(C(=O)c3ccccc3C2=O)[C@@H](O[C@H]2C[C@H](NC(=O)C(F)(F)F)[C@H](O)[C@H](C)O2)O1 [BCH2112, (1'S,1R,3S)-isopropyl-[1-(2',3',6'-trideoxy-3'-trifluoroacetamido-L-lyxohexopyranose)-5,10-dioxo-3,4,5,10-tetrahydro-1H-naphtho-[2,3-c]-pyranyl]-ketone] | 15.96-17
